Experimental data reported in US20260151413A1, “ANTICANCER DRUG CONJUGATES” (Ariel Scientific Innovations Ltd., priority 2022, published 2026).

What was measured:
[1] = previous study; cited from earlier work
[2] = tested on: 10 hematological cell-lines; assay: In vitro cytotoxicity screening on the panel of hematological cell-lines (WST-1); settings: for effect on proliferation rate across the examined cell-lines: 10 hematological cell-lines, WST-1; for cytotoxic effect compared to the parental non-conjugated drug: chimera vs its parent drug
Description: The above cells were cultured in RPMI medium (Gibco, Thermo Fisher Scientific Inc., USA). […] All media were supplemented with 10% heat-inactivated Fetal Bovine Serum (FBS, Biological industries, Israel), 2 mM glutamine (Biological industries, Israel) and 1% penicillin and streptomycin (Biological industries, Israel). Cells were cultured at 37° C. in a humidified incubator with 5% CO2.
Growth inhibition in hematological malignancies cell-lines was measured by tetrazolium WST-1 assay (Roche, Basel, Switzerland). Cells (1*10^4) were treated with various concentrations of the specific chimera or parental drug. After 48 h of incubation, 10 μl of WST-1 reagent was added to the plate and incubated for 1 h at 37° C., at which point the absorbance (450 nm) was measured in an ELISA plate reader (Synergy HTX multi-mode reader, Winooski, Vermont, USA).
MUTZ5 and MHH-CALL4; B-cell Acute lymphocytic leukemia (B-cell ALL) model. DND41; T-ALL model. KG-1a and OCI-AML-3; Acute myeloid leukemia (AML) model and HEL; erythroleukemia model.

[3] = tested on: OCI-AML3; assay: WST-1 proliferation assay, OCI-AML3; type: cell-based; settings: WST-1, 48 hours of treatment
Description: (§1) Albert Pinhasov (Ariel University, Ariel, Israel). […] Granta cells were kindly provided by Prof.
(§2) Table 3 [resents the calculated IC50 values (μM) for each chimera in different hematological malignancies cell-lines. The proliferation rate was measured by WST-1 assay after 48 hours of treatment. The result shown for each concentration point represents the […]

[4] = tested on: MHH-CALL4; assay: WST-1 proliferation assay, MHH-CALL4; type: cell-based, human; settings: WST-1, 48 hours of treatment
Description: as §1, §2

[5] = tested on: GRANTA; assay: WST-1 proliferation assay, GRANTA; type: cell-based; settings: WST-1, 48 hours of treatment
Description: as §1, §2

[6] = tested on: Rec-1; assay: WST-1 proliferation assay, Rec-1; type: cell-based, human; settings: WST-1, 48 hours of treatment
Description: as §1, §2

[7] = tested on: KG-1a; assay: WST-1 proliferation assay, KG-1a; type: cell-based; settings: WST-1, 48 hours of treatment
Description: as §1, §2

[8] = tested on: MINO; assay: WST-1 proliferation assay, MINO; type: cell-based, human; settings: WST-1, 48 hours of treatment
Description: as §1, §2

[9] = tested on: HEL; assay: WST-1 proliferation assay, HEL; type: cell-based, human; settings: WST-1, 48 hours of treatment
Description: as §1, §2

[10] = tested on: JEKO-1; assay: WST-1 proliferation assay, JEKO-1; type: cell-based, human; settings: WST-1, 48 hours of treatment
Description: as §1, §2

[11] = tested on: DND41; assay: WST-1 proliferation assay, DND41; type: cell-based, human; settings: WST-1, 48 hours of treatment
Description: as §1, §2

[12] = tested on: MUTZ5; assay: WST-1 proliferation assay, MUTZ5; type: cell-based, human; settings: WST-1, 48 hours of treatment
Description: as §1, §2

[13] = tested on: aggressive papillary thyroid cancer cells; assay: Proliferation of aggressive papillary thyroid cancer cells; type: cell-based; settings: 10 nM and 100 nM, with respect to DMSO control
Description: Chimera 9 (also referred to herein as Doxorubizen) was evaluated in two different concentrations (10 nM and 100 nM) on aggressive papillary thyroid cancer and with respect to the parent anticancer drug Doxorubicin.

[14] = tested on: Human primary anaplastic thyroid cancer (ATC) cells; assay: Vitality/proliferation of primary anaplastic thyroid cancer cells; type: cell-based; settings: 100 nM, 250 nM, 500 nM; 3, 5 and 7 days
Description: Human primary anaplastic thyroid cancer (ATC) cells were treated with chimera 9 (100 nM, 250 nM, and 500 nM), or Doxorubicin (100 nM, 250 nM, and 500 nM), or with vehicle, for 3, 5, and 7 days.

[15] = tested on: triple negative breast cancer (TNBC) MDA 231 cells
Description: Five-week-old athymic Nude-Foxn 1nu male mice (ENVIGO Labs, Nes Ziona, Israel) were subcutaneously inoculated on the dorsal left side with […] (1×10^6 cell) into nu/nu mice, 0.2 mL per mouse) and tumors allowed to establish over time. When tumor volume reached 100 mm^3, Doxorubicin (Dox) and Doxorubizen (Chimera 9) were administered intraperitoneally (ip). Animals were removed from an experiment if either of the following conditions were fulfilled: reduction of 20% or more body weight; tumor volume>0.55 cm^3. The tumor dimensions were measured using a Vernier caliper and the volume was calculated according to the equation: Volume (mm^3) ¼ length×width×width×½ three times per week. The in vivo experiments were approved by the Animal Ethics Committee (Authorization number IL-179-06-19).
Chimera 9 was also evaluated for its effect on breast cancer model. For this evaluation, […] nude female (6-8 weeks) mice (groups 1, 2, two mice per group, groups 3, 4, 5 three mice per group) were inoculated with triple negative breast cancer (TNBC) MDA 231 cells. Group 1 was used as the control for tumor growth. After 10 days, mice were […] (ip) administered with Doxorubicin (groups 2 and 4) and Chimera 9 (Doxorubizen) (groups 3 and 5) in the following regime: ip administration of 2.5 mg/kg Doxorubicin once per week (group 2) and three sequential days per week (group 4); ip administration of 3.5 mg/kg chimera 9 once per week (group 3) and three sequential days per week (group 5). Overall experiment carried out for 5 weeks and 4 days, when the tumor volumes for all the groups were monitored. Tumors were then resected and measured.

Compound: COC(=O)N(C)/N=N/c1ccc(COC(=O)Nc2cc3c4c(cccc4c2)C(=O)N(CCN(C)C)C3=O)cc1 [Amonafidazene]
- biological parameters in vitro and in vivo compared with parent Amonafide [1]: superior in all biological parameters

Compound: CCc1c2c(nc3ccc(OCc4ccc(/N=N\N(C)C(=O)OC)cc4)cc13)-c1cc3c(c(=O)n1C2)COC(=O)[C@]3(O)CC [Chimera 1, (S,Z)-methyl3-(4-(((4,11-diethyl-4-hydroxy-3,14-dioxo-3,4,12,14-tetrahydro-1H pyrano [3′,4′:6,7]indolizino[1,2-b]quinolin-9-yl)oxy)methyl)phenyl)-1-methyltriaz-2-ene-1-carboxylate]
- effect on proliferation rate across the examined cell-lines [2]: inhibited the proliferation rate in all the examined cell-lines
- cytotoxic effect compared to the parental non-conjugated drug [2]: less than superior cytotoxic effect

Compound: CCc1c2c(nc3ccc(OCc4ccc(N=NN(C)C(=O)OC)cc4)cc13)-c1cc3c(c(=O)n1C2)COC(=O)C3(O)CC (centres unmarked) [Chimera 1]
- IC50 [3]: 12.3 µM
- IC50 [4]: 1.2 µM
- IC50 [5]: 8.42 µM
- IC50 [6]: 0.59 µM
- IC50 [7]: 1.04 µM
- IC50 [8]: 0.63 µM
- IC50 [9]: 0.55 µM
- IC50 [10]: 0.36 µM
- IC50 [11]: 1.99 µM
- IC50 [12]: 3.02 µM

Compound: COC(=O)N(C)/N=N/c1ccc(CNc2cccc3c2CN(C2CCC(=O)NC2=O)C3=O)cc1 (centres unmarked) [Chimera 2, (E)-methyl 3-(4-(((2-(2,6-dioxopiperidin-3-yl)-1-oxoisoindolin-4-yl)amino)methyl)phenyl)-1-methyltriaz-2-ene-1-carboxylate]
- effect on proliferation rate across the examined cell-lines [2]: decreased the proliferation rate in at least 3 cell-lines

Compound: COC(=O)N(C)/N=N/c1ccc(CNc2cccc3c2CN(C2CCC(=O)NC2=O)C3=O)cc1 (centres unmarked) [Chimera 2]
- IC50 [3]: 17.1 µM
- IC50 [4]: 24 µM
- IC50 [5]: > 50 µM
- IC50 [6]: 14.2 µM
- IC50 [7]: 46 µM
- IC50 [8]: 5.7 µM
- IC50 [9]: 1.17 µM
- IC50 [10]: 22.8 µM
- IC50 [11]: > 50 µM
- IC50 [12]: 47.5 µM

Compound: COC(=O)N(C)/N=N/c1ccc(COc2c(OC)cc([C@@H]3c4cc5c(cc4[C@@H](OC4O[C@@H]6CO[C@@H](C)O[C@H]6[C@H](O)[C@H]4O)[C@H]4COC(=O)[C@H]34)OCO5)cc2OC)cc1 (some centres unmarked) [Chimera 3]
- IC50 [3]: 10.2 µM
- IC50 [4]: > 50 µM
- IC50 [5]: 42.1 µM
- IC50 [6]: 23.7 µM
- IC50 [7]: > 50 µM
- IC50 [8]: 30.3 µM
- IC50 [9]: 43.1 µM
- cytotoxic effect compared to the parental non-conjugated drug [2]: did not show prevalence over Etoposide
- IC50 [10]: 28.6 µM
- IC50 [11]: > 50 µM
- IC50 [12]: 34.8 µM

Compound: COC(=O)N(C)/N=N/c1ccc(COc2cc(/C=C\c3cc(OC)c(OC)c(OC)c3)ccc2OC)cc1 [Chimera 4, (E)-methyl3-(4-((2-methoxy-5-((Z)-3,4,5-trimethoxystyryl)phenoxy)methyl)phenyl)-1-methyltriaz-2-ene-1-carboxylate]
- effect on proliferation rate across the examined cell-lines [2]: decreased the proliferation rate in at least 3 cell-lines
- cytotoxic effect compared to the parental non-conjugated drug [2]: less than superior cytotoxic effect

Compound: COC(=O)N(C)/N=N/c1ccc(COc2cc(/C=C\c3cc(OC)c(OC)c(OC)c3)ccc2OC)cc1 [Chimera 4]
- IC50 [3]: > 50 µM
- IC50 [4]: 21.6 µM
- IC50 [5]: 41.5 µM
- IC50 [6]: 0.13 µM
- IC50 [7]: 4.72 µM
- IC50 [8]: 0.69 µM
- IC50 [9]: 1.63 µM
- IC50 [10]: 13.8 µM
- IC50 [11]: 27.6 µM
- IC50 [12]: 39.8 µM

Compound: COC(=O)N(C)/N=N/c1ccc(Cn2cc(F)c(=O)[nH]c2=O)cc1 [Chimera 5, (E)-methyl3-(4-((5-fluoro-2,4-dioxo-3,4-dihydropyrimidin-1(2H)-yl)methyl)phenyl)-1-methyltriaz-2-ene-1-carboxylate]
- effect on proliferation rate across the examined cell-lines [2]: decreased the proliferation rate in at least 3 cell-lines

Compound: COC(=O)N(C)/N=N/c1ccc(Cn2cc(F)c(=O)[nH]c2=O)cc1 [Chimera 5]
- IC50 [3]: 22.7 µM
- IC50 [4]: 32.4 µM
- IC50 [5]: > 50 µM
- IC50 [6]: 0.13 µM
- IC50 [7]: 27.7 µM
- IC50 [8]: 29.7 µM
- IC50 [9]: 2.72 µM
- IC50 [10]: > 50 µM
- IC50 [11]: 30.9 µM
- IC50 [12]: 44.6 µM

Compound: COC(=O)N(C)/N=N/c1ccc(CSc2ncnc3nc[nH]c23)cc1 [Chimera 6, (E)-methyl 3-(4-(((7H-purin-6-yl)thio)methyl)phenyl)-1-methyltriaz-2-ene-1-carboxylate]
- effect on proliferation rate across the examined cell-lines [2]: decreased the proliferation rate in at least 3 cell-lines

Compound: COC(=O)N(C)/N=N/c1ccc(CSc2ncnc3nc[nH]c23)cc1 [Chimera 6]
- IC50 [3]: 8.76 µM
- IC50 [4]: 16.6 µM
- IC50 [5]: > 50 µM
- IC50 [6]: 20.5 µM
- IC50 [7]: 39.2 µM
- IC50 [8]: 6.88 µM
- IC50 [9]: 13.5 µM
- IC50 [10]: 39.5 µM
- IC50 [11]: > 50 µM
- IC50 [12]: 31 µM

Compound: COC(=O)N(C)/N=N/c1ccc(CNc2nc3ccc(OC(F)(F)F)cc3s2)cc1 [Chimera 7, (E)-methyl1-methyl-3-(4-(((6-(trifluoromethoxy)benzo [d]thiazol2yl)amino)methyl)phenyl) triaz-2-ene-1-carboxylate]
- effect on proliferation rate across the examined cell-lines [2]: decreased the proliferation rate in at least 3 cell-lines
- cytotoxic effect compared to the parental non-conjugated drug [2]: reduced proliferation rate of numerous cell-lines

Compound: COC(=O)N(C)/N=N/c1ccc(CNc2nc3ccc(OC(F)(F)F)cc3s2)cc1 [Chimera 7]
- IC50 [3]: 14.2 µM
- IC50 [4]: 5.25 µM
- IC50 [5]: 43 µM
- IC50 [6]: 18 µM
- IC50 [7]: 23 µM
- IC50 [8]: 7.8 µM
- IC50 [9]: 2.37 µM
- IC50 [10]: > 50 µM
- IC50 [11]: 2.37 µM
- IC50 [12]: 1.81 µM

Compound: COC(=O)N(C)/N=N/c1ccc(CNc2cc3c4c(cccc4c2)C(=O)N(CCN(C)C)C3=O)cc1 [Chimera 8]
- IC50 [3]: 12.7 µM
- IC50 [4]: 36 µM
- IC50 [5]: > 50 µM
- IC50 [6]: > 50 µM
- IC50 [7]: 19.1 µM
- IC50 [8]: 13.3 µM
- IC50 [9]: 1.97 µM
- IC50 [10]: 7.12 µM
- IC50 [11]: 20.9 µM
- IC50 [12]: 10.3 µM

Compound: COc1cccc2c1C(=O)c1c(O)c3c(c(O)c1C2=O)C[C@@](O)(C(=O)CO)C[C@@H]3O[C@H]1C[C@H](N)[C@H](O)[C@H](C)O1 [Doxorubicin, reference compound]
- proliferation of thyroid cancer cells [13]: no effect on cell proliferation
- vitality/proliferation of primary human ATC cells [14]: reduced the vitality/proliferation of primary human ATC cells significantly
- day of sacrifice due to large tumor volumes and severe animal conditions ([15]; Group 2: ip 2.5 mg/kg once per week): 12 days
- day of death due to over toxication ([15]; Group 4: ip 2.5 mg/kg, three sequential days per week): 20 days
